From US20240316047A1, “INHIBITORS OF RNA HELICASE DHX9 AND USES THEREOF” (ACCENT THERAPEUTICS, INC., priority 2022, published 2024)
Like-named read-outs stand apart in the source and are kept apart here.

Assays:
[1] = biological target: Human recombinant DHX9 protein (Homo sapiens (Human), UniProt Q08211); assay: DHX9 ATPase assay (ADP-Glo); format: biochemical; conditions: for IC50: read-out: DHX9 Biochemical Inflection Point
[2] = tested on: circBRIP1 in HCT116 cells; assay: DHX9 circBRIP1 cellular target engagement SYBR Green assay; format: cell-based
[3] = tested on: circBRIP1 in HCT116 cells; assay: DHX9 circBRIP1 cellular target engagement TaqMan multiplex assay; format: cell-based; conditions: read-out: DHX9 Cellular Target Engagement
LS411N cells = assay: DHX9 cellular proliferation assay (CellTiter-Glo), LS411N (CRC-MSI); format: cell-based; conditions: performed at Pharmaron, read-out: LS411N (CRC-MSI-H) Antiproliferative
NCI-H747 cells = assay: DHX9 cellular proliferation assay (CellTiter-Glo), NCI-H747 (CRC-MSS); format: cell-based; conditions: Homo sapiens, NCI-H747, performed at Pharmaron; read-out: H747 (CRC-MSS) Antiproliferative
[4] = Homo sapiens, HCT-116, values marked +, read-out: DHX9 Cellular Target Engagement EC50
[5] = Homo sapiens, HCT-116, SyBr assay (^+), read-out: DHX9 Cellular Target Engagement
[6] = values marked +, read-out: DHX9 Cellular Target Engagement EC50
[7] = Homo sapiens, HCT-116, Taqman assay (*)

Sequence of Human recombinant DHX9 protein (Q08211 whole entry): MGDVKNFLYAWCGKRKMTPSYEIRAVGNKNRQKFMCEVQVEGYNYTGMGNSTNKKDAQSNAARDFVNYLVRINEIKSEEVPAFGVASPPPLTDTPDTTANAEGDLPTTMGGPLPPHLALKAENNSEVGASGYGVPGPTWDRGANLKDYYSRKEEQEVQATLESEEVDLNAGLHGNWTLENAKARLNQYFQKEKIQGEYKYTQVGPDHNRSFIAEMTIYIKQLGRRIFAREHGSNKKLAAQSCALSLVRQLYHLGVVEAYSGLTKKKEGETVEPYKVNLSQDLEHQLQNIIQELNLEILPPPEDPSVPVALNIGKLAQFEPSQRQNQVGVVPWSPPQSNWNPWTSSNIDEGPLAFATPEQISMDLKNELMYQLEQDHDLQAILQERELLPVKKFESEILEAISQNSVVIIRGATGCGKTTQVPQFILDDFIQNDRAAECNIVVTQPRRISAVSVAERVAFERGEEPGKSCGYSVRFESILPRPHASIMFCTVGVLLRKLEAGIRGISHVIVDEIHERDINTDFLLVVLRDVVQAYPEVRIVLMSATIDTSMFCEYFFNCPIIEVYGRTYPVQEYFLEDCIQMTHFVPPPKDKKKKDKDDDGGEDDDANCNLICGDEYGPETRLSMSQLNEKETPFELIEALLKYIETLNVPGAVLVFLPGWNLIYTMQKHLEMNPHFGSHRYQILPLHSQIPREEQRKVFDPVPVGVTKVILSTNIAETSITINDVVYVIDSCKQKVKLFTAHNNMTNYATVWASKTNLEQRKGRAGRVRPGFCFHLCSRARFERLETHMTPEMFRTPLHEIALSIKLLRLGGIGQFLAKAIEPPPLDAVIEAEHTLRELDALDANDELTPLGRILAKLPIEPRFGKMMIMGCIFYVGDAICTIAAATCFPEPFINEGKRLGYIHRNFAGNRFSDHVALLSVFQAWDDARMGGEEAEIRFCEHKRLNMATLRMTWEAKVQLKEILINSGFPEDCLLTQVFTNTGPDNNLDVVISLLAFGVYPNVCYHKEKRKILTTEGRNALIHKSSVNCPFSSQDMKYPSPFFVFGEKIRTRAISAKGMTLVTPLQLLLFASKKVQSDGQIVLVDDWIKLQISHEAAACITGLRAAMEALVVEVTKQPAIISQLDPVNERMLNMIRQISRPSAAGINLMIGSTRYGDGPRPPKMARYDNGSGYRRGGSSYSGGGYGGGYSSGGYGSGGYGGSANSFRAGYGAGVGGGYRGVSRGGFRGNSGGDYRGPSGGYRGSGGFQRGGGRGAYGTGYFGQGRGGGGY

| SMILES | DHX9 Biochemical Max Inhibition [1] | IC50 [1] [nM] | other results |
| --- | --- | --- | --- |
| CS(=O)(=O)Nc1cc(Cl)cc(NC(=O)c2cnn(-c3ncccc3OCc3cccc(Br)c3)c2)c1 [Example 231] | 66.3% | 49.1 | EC50 [2, 4]: 203 nM |
| CC(Oc1cccnc1-c1cc(C(=O)Nc2cc(Cl)cc(NS(C)(=O)=O)c2)cn1C)c1cc(F)cc(C(F)(F)F)c1 (single isomer, unassigned) [Example 628, N-(3-chloro-5-methanesulfonamidophenyl)-5-{3-[1-[3-fluoro-5-(trifluoromethyl)phenyl]ethoxy]pyridin-2-yl}-1-methyl-1H-pyrrole-3-carboxamide] | 58.1 | 537 | EC50 ([3]; Taqman assay (*)): 1080 nM |
| CS(=O)(=O)Nc1cc(F)cc(NC(=O)c2cnn(-c3ccccc3OCc3ccccc3)c2)c1 [Example 430] | 74.9 | 142 | EC50 [2, 5]: 1170 nM |
| CS(=O)(=O)Nc1cc(Cl)cc(NC(=O)c2cnn(-c3ncccc3OCc3cc(F)cc(F)c3)c2)c1 [Example 256] | 70.1% | 403 | EC50 [2, 6]: 2030 nM |
| CS(=O)(=O)Nc1cc(Cl)cc(NC(=O)c2cnn([C@@H]3CCCC[C@@H]3O)c2)c1 (relative stereo) [Example 153, N-(3-chloro-5-(methylsulfonamido)phenyl)-1-(2-cis-hydroxycyclohexyl)-1H-pyrazole-4-carboxamide] | 59.7% | 256 | EC50 [2, 6]: 6110 nM |
| Cc1cc(C(=O)Nc2cc(Cl)cc(NS(C)(=O)=O)c2)cn1-c1ncc(N2CCC(F)(F)C2)cc1F [Example 408] | 63 | 41.6 | IC50 (LS411N cells; Homo sapiens, LS-411N): 215 nM; IC50 (NCI-H747 cells): 8160 nM; EC50 [3, 7]: 67.1 nM |
| CS(=O)(=O)Nc1cc(Cl)cc(NC(=O)c2cnn(-c3c(F)cc(F)cc3OCc3cnco3)c2)c1 [Example 429] | 59.6 | 255 | EC50 [2, 5]: 1180 nM |
| Cn1cc(C(=O)Nc2cc(Cl)cc(NS(C)(=O)=O)c2)cc1-c1ncc(N2CC3C(C2)C3(C)C)cc1F (centres unmarked) [Example 516] | 57.7 | 204 | EC50 [3, 7]: 220 nM |
| Cc1sc(C(=O)Nc2cc(Cl)cc(NS(C)(=O)=O)c2)cc1-c1ncc(N2CC(C(F)(F)F)C2)cc1F [Example 460, N-(3-chloro-5-(methylsulfonamido)phenyl)-4-(3-fluoro-5-(3-(trifluoromethyl)azetidin-1-yl)pyridin-2-yl)-5-methylthiophene-2-carboxamide] | 60.9 | 131 | IC50 (LS411N cells): 221 nM; EC50 ([3]; Taqman assay (*)): 58.6 nM |
| Cn1cc(C(=O)Nc2cc(Cl)cc(NS(C)(=O)=O)c2)cc1-c1ncc(F)cc1CCc1cncc(F)c1 [Example 728] | 62.5 | 158 | EC50 [3, 7]: 1350 nM |
| Cc1sc(C(=O)Nc2cc(Cl)cc(NS(C)(=O)=O)c2)cc1-c1ncccc1OC(C)c1cc(F)cc(F)c1 (single isomer, unassigned) [Example 633] | 71.2 | 52.6 |  |
| CC(C)(C)OC(=O)N1CCC(n2cc(C(=O)Nc3cc(Cl)cc(NS(C)(=O)=O)c3)cn2)CC1 [Example 136] | 59.6% |  |  |
| CS(=O)(=O)Nc1cc(Cl)cc(NC(=O)c2cnn([C@H]3CCC[C@H]3c3ccccc3)c2)c1 (single isomer, unassigned) [Example 260] | 50% |  |  |
| Cc1cccnc1-c1nc(C(=O)Nc2cc(Cl)cc(NS(C)(=O)=O)c2)cn1C [Example 156] | 51.2% | 695 |  |
| CS(=O)(=O)Nc1cc(F)cc(NC(=O)c2cc(-c3ccccc3O)cs2)c1 [Example 114] | 66.4% | 43.5 |  |
| Cn1nc(C(=O)Nc2cc(Cl)cc(NS(C)(=O)=O)c2)cc1-c1ccccn1 [Example 140] | 63.3% | 300 |  |
| Cc1cccc(O)c1-c1csc(C(=O)Nc2cc(Br)cc(NS(C)(=O)=O)c2)c1 [Example 19] | 53.5% | 115 |  |
| CCCS(=O)(=O)Nc1cc(Cl)cc(NC(=O)c2cc(-c3ncccc3C)cs2)c1 [Example 372] | 49.2% | 402 |  |
| CS(=O)(=O)Nc1cc(Cl)cc(NC(=O)c2cnn(-c3ncccc3OCc3cnco3)c2)c1 [Example 66] | 62.9% | 56.6 |  |
| CC(=O)N1CCC(n2cc(C(=O)Nc3cc(Cl)cc(NS(C)(=O)=O)c3)cn2)CC1 [Example 317] | 63.8% | 272 |  |
| Cc1sc(C(=O)Nc2cc(Cl)cc(NS(C)(=O)=O)c2)cc1-c1ccc(P(C)(C)=O)cn1 [Example 647] | 72.9 |  |  |
| Cn1nc(-c2ccccn2)cc1C(=O)Nc1cc(Cl)cc(NS(C)(=O)=O)c1 [Example 141] | 54.9% | 442 |  |
| CS(=O)(=O)Nc1cc(Cl)cc(NC(=O)c2cnn(C3CC4(CC(N)C4)C3)c2)c1 (centres unmarked) [Example 319] | 70.1% | 57.7 |  |

Now from value to molecule, other results behind:

| DHX9 Biochemical Max Inhibition [1] | IC50 [1] [nM] | SMILES | other results |
| --- | --- | --- | --- |
| 77.5% | 20.2 | CCc1sc(C(=O)Nc2cc(Cl)cc(NS(C)(=O)=O)c2)cc1-c1ccccn1 [Example 232] | EC50 [2, 4]: 61 nM |
| 74.8 | 28.9 | CC(Oc1cccnc1-c1cc(C(=O)Nc2cc(Cl)cc(NS(C)(=O)=O)c2)cn1C)c1cc(F)cc(C(F)(F)F)c1 (single isomer, unassigned) [Example 629, N-(3-chloro-5-methanesulfonamidophenyl)-5-{3-[1-[3-fluoro-5-(trifluoromethyl)phenyl]ethoxy]pyridin-2-yl}-1-methyl-1H-pyrrole-3-carboxamide] | EC50 ([3]; Taqman assay (*)): 112 nM |
| 67.3 | 34.2 | Cc1sc(C(=O)Nc2cc(Cl)cc(NS(C)(=O)=O)c2)cc1-c1ncc(OC(C)C)cc1F [Example 455] | IC50 (LS411N cells; Homo sapiens, LS-411N): 88.6 nM; IC50 (NCI-H747 cells): 6780 nM; EC50 [3, 7]: 57.6 nM |
| 82.4% | 3.2 | CS(=O)(=O)Nc1cc(Cl)cc(NC(=O)c2cnn(-c3ncccc3OCc3cc(F)cc(F)c3)c2)c1 [Example 187] | EC50 [2, 6]: 50.4 nM |
| 67 | 22.9 | Cc1sc(C(=O)Nc2cc(Cl)cc(NS(C)(=O)=O)c2)cc1-c1ncccc1OC(C)c1cncc(F)c1 (centres unmarked) [Example 630] | IC50 (NCI-H747 cells): > 10000 nM |
| 54.1 | 23.7 | CCS(=O)(=O)Nc1cc(Cl)cc(NC(=O)c2cc(-c3ncc(N4CC(F)(F)C4)cc3F)n(C)c2)c1 [Example 517] | IC50 (LS411N cells; Homo sapiens, LS-411N): 135 nM; IC50 (NCI-H747 cells): 2220 nM; EC50 [3, 7]: 16.8 nM |
| 66.5 | 3.9 | Cc1cc(C(=O)Nc2cc(Cl)cc(NS(C)(=O)=O)c2)cn1-c1ccc(N(C)C2CCOC2)cn1 (centres unmarked) [Example 674] | IC50 (NCI-H747 cells): > 10000 nM |
| 84% | 9.6 | Cc1sc(C(=O)Nc2cc(Cl)cc(NS(C)(=O)=O)c2)cc1-c1ncc(F)cn1 [Example 336] |  |
| 71.6% | 5.4 | Cc1cc(C(=O)Nc2cc(Cl)cc(NS(C)(=O)=O)c2)cn1-c1ccc(N2CCOC(C)(C)C2)cn1 [Example 272] |  |
| 77.3 | 7.9 | COc1cc(F)cnc1-c1cc(C(=O)Nc2cc(Cl)cc(NS(C)(=O)=O)c2)cn1C [Example 568, N-(3-chloro-5-methanesulfonamidophenyl)-5-(5-fluoro-3-methoxypyridin-2-yl)-1-methylpyrrole-3-carboxamide] |  |
| 68.8 | 6.8 | Cc1sc(C(=O)Nc2cc(Cl)cc(NS(C)(=O)=O)c2)cc1-c1ncc(OC(C)C(=O)O)cn1 (centres unmarked) [Example 671] |  |
| 74.4 | 6.8 | Cc1sc(C(=O)Nc2cc(Cl)cc(NS(C)(=O)=O)c2)cc1-c1ncccc1OCc1cncc(F)c1 [Example 621] |  |
| 67.4% | 20.2 | CS(=O)(=O)Nc1cc(Cl)cc(NC(=O)c2cnn(-c3ccc(N4CCOCC4=O)cn3)c2)c1 [Example 180] |  |
| 94.5 | 3.9 | CCS(=O)(=O)Nc1cc(Cl)cc(NC(=O)c2cc(-c3ncc(F)cc3OCc3cncnc3)c(C)s2)c1 [Example 623] |  |
| 77 | 2.3 | COc1cc(F)cnc1-n1cc(C(=O)Nc2cc(Cl)cc(NS(C)(=O)=O)c2)cc1C [Example 393] |  |
| 70.4 | 11.7 | Cc1sc(C(=O)Nc2cc(Cl)cc(NS(C)(=O)=O)c2)cc1-c1ncc(N2CCC3(CC2)COC3)cc1F [Example 474] |  |
| 72.4% | 15.9 | CCOc1cnc(-c2cc(C(=O)Nc3cc(Cl)cc(NS(C)(=O)=O)c3)cn2C)nc1 [Example 172] |  |
| 87.8 | 12.6 | Cn1cc(C(=O)Nc2cc(Cl)cc(NS(C)(=O)=O)c2)cc1-c1ncc(F)cc1OCc1nnnn1C [Example 625] |  |
| 73 | 29.3 | Cc1cc(C(=O)Nc2cc(Cl)cc(NS(C)(=O)=O)c2)cn1-c1ncc(N2CC(C(F)(F)F)C2)cn1 [Example 694] |  |
| 82.3% | 19.5 | Cc1cc(C(=O)Nc2cc(Cl)cc(NS(C)(=O)=O)c2)cn1-c1ccc(Cl)cn1 [Example 389] |  |
